Results as given in patent US20070292403A1, “Methods of treating a neurological disorder with creatine monohydrate” (priority 2006, published 2007).

Tests used:
[1] = system: subjects with Huntington's disease; assay: Example 1: tolerability, safety and clinical (UHDRS) measures of creatine 8 g/day in Huntington's disease, randomized placebo-controlled; assay type: in vivo, human; design: Serum creatinine: unit: mg/dL; settings: for Serious adverse events / Study withdrawal before week 24: monohydrate
Method: Study design. Sixty-four subjects were enrolled at four sites. Eligible subjects were randomized to 8 g/day of creatine monohydrate or placebo by computer-generated blocked randomization with site stratification. Treatment was administered as chewable wafers twice daily for 16 weeks. A medical monitor and independent safety committee reviewed clinical data monthly. Consent, study procedures, and case report forms were approved by the institutional review board at each site. Blood samples for analysis of serum biomarkers were obtained with consent from 30 age-appropriate individuals without neurological illnesses.
Eligibility criteria. Eligible subjects were 18 years of age and older with a diagnosis of Huntington's disease confirmed by genetic testing, a total functional capacity score of ≧5, and a caregiver to witness consent and monitor compliance. Exclusion criteria included previous creatine exposure within 30 days of baseline; underlying hematological, hepatic, or renal disease; screening white blood cell count <3,800/mm^3; creatinine >2.0 mg/dL or alanine aminotransferase greater than twice the upper normal limit; or unstable medical/psychiatric illness.
(§1) Study protocol. Subjects were screened within 25 days of randomization (baseline visit). Screening included assessment of eligibility criteria, medical history, physical examination, Unified Huntington's Disease Rating Scale (UHDRS), EKG, DNA analysis, complete blood count, chemistry panel, and urinalysis. Subjects were on study drug (creatine or placebo) for 16 weeks, followed by an 8-week washout. Study visits occurred at baseline, weeks 8, 16, and 24 with telephone contacts at weeks 1, 10 and 20. Physical examination was done at screening and week 16. UHDRS scores, vital signs, adverse event assessment, and safety laboratory tests were repeated at all visits. Blood was collected for serum creatine levels and serum 8-hydroxy-2′-deoxyguanosine (8OH2′dG), a measure of oxidative injury affecting DNA. The later was analyzed in the samples from two sites. Magnetic resonance spectroscopy (MRS; STEAM; TR/TE=6000/20 milliseconds) of frontal cortex (voxel size=56 cc) and occipital cortex (voxel size=18 cc) performed at one site was analyzed for this report. Subject compliance was assessed by wafer counts.
Statistical analysis. The primary outcome measure was tolerability. […] Within 27 subjects per group, there was a 94% power to detect an absolute difference of 50% or more between the placebo group and the active treatment group assuming a 15% dropout rate. In accordance with intent to treat, all randomized subjects were included in safety and tolerability analysis. Tolerability was assessed by comparing the proportion of treatment failures in creatine and placebo groups using χ^2 test with continuity correction. As the primary interest was in detecting intolerability in the active group, a one-sided test was used (significance=0.05). This was also applied to assess adverse events and laboratory abnormalities. The laboratory score changes from screening were analyzed by repeated-measures analysis of variance (ANOVA), and the differences between visits were analyzed by paired t test. Demographic and baseline variables were summarized for each group, and comparisons made using Fischer's exact test and continuous variables were compared using t test. Changes in UHDRS motor, cognitive, behavioral, and functional component subscores were measured at baseline and weeks 8, 16, and 24 and analyzed by mixed-model ANOVA.

[2] = system: serum 8-hydroxy-2′-deoxyguanosine (8OH2′dG); assay: Example 1: serum 8OH2'dG biomarker of oxidative injury to DNA; assay type: in vivo, human; settings: baseline to 16 weeks, 8 g/day; SD=13.93; placebo increase 5.87; p<0.0042
Source text: as §1

[3] = 8 g/day, n = 32, frequency, listed as creatine
[4] = adverse event frequency, 8 g/day, n = 32

CN(CC(=O)O)C(=N)N [Creatine, creatine monohydrate]
Laboratory abnormalities ([1]; 8 g/day): mild reversible serum creatinine and alkaline phosphatase elevations
Tolerability ([1]; 8 g/day, chewable wafers twice daily, 16 weeks): well tolerated
All adverse events: mild, moderate and severe, (%) ([1]; 8 g/day, n = 32): 86.9%
All adverse events: mild, moderate and severe, no. ([1]; 8 g/day, n = 32, frequency): 26
Serious adverse events [1, 3]: three
Study withdrawal before week 24 [1, 3]: three
Serious adverse events ([1]; 8 g/day, n = 32, frequency): 3
Study withdrawal before week 24 ([1]; 8 g/day, n = 32, frequency): 2
Body mass index and UHDRS subscores compared with baseline ([1]; 8 g/day, paired t test): did not change with treatment
Apathy [1, 4]: 1
Cough [1, 4]: 1
Depression [1, 4]: 4
Dizziness [1, 4]: 1
Dysphagia [1, 4]: 1
Fall [1, 4]: 3
Hematuria [1, 4]: 1
Increased movements [1, 4]: 1
Irritability [1, 4]: 3
Lethargy [1, 4]: 2
Vomiting [1, 4]: 1
Serum creatinine ([1]; creatine group by week 8, from 0.88±0.19, p<0.01, elevated at week 16, baseline at washout, in mg/dL (unit assumed)): 1.04±0.24
Average reduction of serum 8OH2′dG [2]: 9.11 pg/mL
